Test results: patent US8053553B2, “Targeting host proteinases as a therapeutic strategy against viral and bacterial pathogens” (Socpra Sciences Sante Et Humaines, priority 2007, dated 2011)
Non-standard residues stand in square brackets, D forms with d. Residues, ends and D or L forms follow the SMILES beside them. Nle = CCCC[C@H](N)C(=O)O; βAla = NCCC(=O)O; Sar = CNCC(=O)O

molecular target: T1, furin (Homo sapiens, UniProt P09958); test: biochemical; conditions: furin, Pyr-RTKR-AMC substrate; alanine scanning mutagenesis of the H5 furin cleavage sequence (Table 2); read-out: Ki
T1 construct: made in house; host or cells: Drosophila S2 cells (Invitrogen expression system)
T1 sequence (P09958 108-794 limits assumed): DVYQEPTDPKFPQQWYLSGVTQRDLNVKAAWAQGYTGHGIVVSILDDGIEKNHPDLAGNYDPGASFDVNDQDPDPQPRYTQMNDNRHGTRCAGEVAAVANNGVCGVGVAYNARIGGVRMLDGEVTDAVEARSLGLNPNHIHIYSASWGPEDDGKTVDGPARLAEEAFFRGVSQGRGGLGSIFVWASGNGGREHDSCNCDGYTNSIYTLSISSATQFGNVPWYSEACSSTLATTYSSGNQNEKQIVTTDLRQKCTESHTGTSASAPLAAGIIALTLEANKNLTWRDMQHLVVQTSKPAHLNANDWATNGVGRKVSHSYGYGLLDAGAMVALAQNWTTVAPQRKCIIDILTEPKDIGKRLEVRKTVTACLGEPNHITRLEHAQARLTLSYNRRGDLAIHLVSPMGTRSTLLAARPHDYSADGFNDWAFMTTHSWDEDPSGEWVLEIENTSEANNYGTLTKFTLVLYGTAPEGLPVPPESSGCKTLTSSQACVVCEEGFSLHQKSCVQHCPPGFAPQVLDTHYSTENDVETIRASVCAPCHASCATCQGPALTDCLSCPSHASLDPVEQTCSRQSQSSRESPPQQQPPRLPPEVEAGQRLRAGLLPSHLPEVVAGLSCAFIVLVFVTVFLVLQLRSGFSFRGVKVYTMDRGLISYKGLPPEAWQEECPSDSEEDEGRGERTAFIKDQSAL

Structure (SMILES)	Ki
C[C@H](NC(=O)[C@H](C)NC(=O)[C@@H]1CCCN1C(=O)[C@@H](N)[C@@H](C)O)C(=O)N[C@@H](C)C(=O)N[C@@H](CCCNC(=N)N)C(=O)N[C@@H](CCCNC(=N)N)C(=O)N[C@@H](CCCCN)C(=O)N[C@@H](CCCCN)C(=O)N[C@@H](CCCNC(=N)N)C(=O)NCC(N)=O (H-TPAAARRKKRG-NH2)	> 100 nM
C[C@H](NC(=O)[C@H](CCC(=O)O)NC(=O)[C@H](CCCNC(=N)N)NC(=O)[C@@H]1CCCN1C(=O)[C@@H](N)[C@@H](C)O)C(=O)N[C@@H](CCCNC(=N)N)C(=O)N[C@@H](CCCNC(=N)N)C(=O)N[C@@H](CCCCN)C(=O)N[C@@H](CCCCN)C(=O)N[C@@H](CCCNC(=N)N)C(=O)N(C)CC(N)=O (H-TPREARRKKR[Sar]-NH2)	> 100 nM
C[C@H](NC(=O)[C@H](CCCNC(=N)N)NC(=O)[C@H](CCC(=O)O)NC(=O)[C@H](CCCNC(=N)N)NC(=O)[C@@H]1CCCN1C(=O)[C@@H](N)[C@@H](C)O)C(=O)N[C@@H](CCCNC(=N)N)C(=O)N[C@@H](CCCCN)C(=O)N[C@@H](CCCCN)C(=O)N[C@@H](CCCNC(=N)N)C(N)=O (H-TPRERARKKR-NH2)	> 100 nM
C[C@@H](O)[C@H](N)C(=O)N1CCC[C@H]1C(=O)N[C@@H](CCCNC(=N)N)C(=O)N[C@@H](CCC(=O)O)C(=O)N[C@@H](CCCNC(=N)N)C(=O)N[C@@H](CCCNC(=N)N)C(=O)N[C@@H](CCCNC(=N)N)C(=O)N[C@@H](CCCCN)C(=O)N[C@@H](CCCCN)C(=O)N[C@@H](CCCNC(=N)N)C(N)=O (H-TPRERRRKKR-NH2)	> 100 nM
C[C@H](NC(=O)[C@@H](N)[C@@H](C)O)C(=O)N[C@@H](CCCNC(=N)N)C(=O)N[C@@H](CCC(=O)O)C(=O)N[C@@H](CCCNC(=N)N)C(=O)N[C@@H](CCCNC(=N)N)C(=O)N[C@@H](CCCNC(=N)N)C(=O)N[C@@H](CCCCN)C(=O)N[C@@H](CCCCN)C(=O)N[C@@H](CCCNC(=N)N)C(=O)N[C@@H](CO)C(N)=O (H-TARERRRKKRS-NH2)	> 100 nM
C[C@H](NC(=O)[C@H](C)NC(=O)[C@@H]1CCCN1C(=O)[C@@H](N)[C@@H](C)O)C(=O)N[C@@H](CCCNC(=N)N)C(=O)N[C@@H](CCCNC(=N)N)C(=O)N[C@@H](CCCNC(=N)N)C(=O)N[C@@H](CCCCN)C(=O)N[C@@H](CCCCN)C(=O)N[C@@H](CCCNC(=N)N)C(N)=O (H-TPAARRRKKR-NH2)	> 100 nM
C[C@H](NC(=O)[C@H](CCC(=O)O)NC(=O)[C@H](CCCNC(=N)N)NC(=O)[C@@H]1CCCN1C(=O)[C@@H](N)[C@@H](C)O)C(=O)N[C@@H](CCCNC(=N)N)C(=O)N[C@@H](CCCNC(=N)N)C(=O)N[C@@H](CCCCN)C(=O)N[C@@H](CCCCN)C(=O)N[C@@H](CCCNC(=N)N)C(N)=O (H-TPREARRKKR-NH2)	> 100 nM
C[C@H](NC(=O)[C@H](C)NC(=O)[C@H](CCCNC(=N)N)NC(=O)[C@@H]1CCCN1C(=O)[C@@H](N)[C@@H](C)O)C(=O)N[C@@H](CCCNC(=N)N)C(=O)N[C@@H](CCCNC(=N)N)C(=O)N[C@@H](CCCCN)C(=O)N[C@@H](CCCCN)C(=O)N[C@@H](CCCNC(=N)N)C(N)=O (H-TPRAARRKKR-NH2)	> 100 nM
C[C@H](NC(=O)[C@H](C)NC(=O)[C@H](CCC(=O)O)NC(=O)[C@H](CCCNC(=N)N)NC(=O)[C@@H]1CCCN1C(=O)[C@@H](N)[C@@H](C)O)C(=O)N[C@@H](CCCNC(=N)N)C(=O)N[C@@H](CCCCN)C(=O)N[C@@H](CCCCN)C(=O)N[C@@H](CCCNC(=N)N)C(=O)N(C)CC(N)=O (H-TPREAARKKR[Sar]-NH2)	> 100 nM
C[C@H](NC(=O)[C@@H]1CCCN1C(=O)[C@@H](N)[C@@H](C)O)C(=O)N[C@@H](CCC(=O)O)C(=O)N[C@@H](CCCNC(=N)N)C(=O)N[C@@H](CCCNC(=N)N)C(=O)N[C@@H](CCCNC(=N)N)C(=O)N[C@@H](CCCCN)C(=O)N[C@@H](CCCCN)C(=O)N[C@@H](CCCNC(=N)N)C(N)=O (H-TPAERRRKKR-NH2)	> 100 nM
CC(C)[C@H](NC(=O)[C@H](CCCNC(=N)N)NC(=O)[C@H](CCCCN)NC(=O)[C@H](CCCCN)NC(=O)[C@H](CCCNC(=N)N)NC(=O)[C@H](CCCNC(=N)N)NC(=O)[C@H](C)NC(=O)[C@H](CCC(=O)O)NC(=O)[C@H](CCCNC(=N)N)NC(=O)[C@@H]1CCCN1C(=O)[C@@H](N)[C@@H](C)O)C(N)=O (H-TPREARRKKRV-NH2)	> 100 nM

same assay, conditions: furin, Pyr-RTKR-AMC substrate; optimization of the inhibitory peptides (Table 3); read-out: Ki

Structure (SMILES)	Ki
CCCC[C@H](NC(=O)[C@H](CCCNC(=N)N)NC(=O)[C@H](CCCCN)NC(=O)[C@H](CCCCN)NC(=O)[C@H](CCCNC(=N)N)NC(=O)[C@H](CCCNC(=N)N)NC(=O)[C@H](CCCNC(=N)N)NC(=O)[C@H](C)NC(=O)[C@H](CCCNC(=N)N)NC(=O)[C@H](CCC(N)=O)NC(=O)[C@@H]1CCCN1C(=O)[C@@H](N)[C@@H](C)O)C(N)=O (H-TPQRARRRKKR[Nle]-NH2)	> 100 nM
C[C@H](NC(=O)[C@H](CCCNC(=N)N)NC(=O)[C@H](CCC(N)=O)NC(=O)[C@@H]1CCCN1C(=O)[C@@H](N)[C@@H](C)O)C(=O)N[C@@H](CCCNC(=N)N)C(=O)N[C@@H](CCCNC(=N)N)C(=O)N[C@@H](CCCNC(=N)N)C(=O)N[C@@H](CCCCN)C(=O)N[C@@H](CCCCN)C(=O)N[C@@H](CCCNC(=N)N)C(=O)NCCC(N)=O (H-TPQRARRRKKR[βAla]-NH2)	> 100 nM
C[C@H](NC(=O)[C@H](CCCNC(=N)N)NC(=O)[C@H](CCC(N)=O)NC(=O)[C@@H]1CCCN1C(=O)[C@@H](N)[C@@H](C)O)C(=O)N[C@@H](CCCNC(=N)N)C(=O)N[C@@H](CCCNC(=N)N)C(=O)N[C@@H](CCCNC(=N)N)C(=O)N[C@@H](CCCCN)C(=O)N[C@@H](CCCCN)C(=O)N[C@@H](CCCNC(N)=O)C(=O)NCC(N)=O	> 100 nM
C[C@H](NC(=O)[C@H](CCCNC(=N)N)NC(=O)[C@H](CCC(N)=O)NC(=O)[C@@H]1CCCN1C(=O)[C@@H](N)[C@@H](C)O)C(=O)N[C@@H](CCCNC(=N)N)C(=O)N[C@@H](CCCNC(=N)N)C(=O)N[C@@H](CCCNC(=N)N)C(=O)N[C@@H](CCCCN)C(=O)N[C@@H](CCCCN)C(=O)N[C@@H](CCCNC(=N)N)C(=O)N[C@H](CCCCN)C(N)=O (H-TPQRARRRKKR[dK]-NH2)	> 100 nM
C[C@@H](O)[C@H](N)C(=O)N1CCC[C@H]1C(=O)N[C@@H](CCC(N)=O)C(=O)N[C@@H](CCCNC(=N)N)C(=O)N[C@H](CCCNC(=N)N)C(=O)N[C@@H](CCCNC(=N)N)C(=O)N[C@@H](CCCNC(=N)N)C(=O)N[C@@H](CCCNC(=N)N)C(=O)N[C@@H](CCCCN)C(=O)N[C@@H](CCCCN)C(=O)N[C@@H](CCCNC(=N)N)C(=O)NCC(N)=O [TPQRrRRRKKRG]	> 100 nM
C[C@@H](O)[C@H](N)C(=O)N1CCC[C@H]1C(=O)N[C@@H](CCC(N)=O)C(=O)N[C@@H](CCCNC(=N)N)C(=O)N[C@H](CCC(=O)O)C(=O)N[C@@H](CCCNC(=N)N)C(=O)N[C@@H](CCCNC(=N)N)C(=O)N[C@@H](CCCNC(=N)N)C(=O)N[C@@H](CCCCN)C(=O)N[C@@H](CCCCN)C(=O)N[C@@H](CCCNC(=N)N)C(=O)NCC(N)=O [TPQReRRRKKRG]	> 100 nM
C[C@H](NC(=O)[C@H](CCCNC(=N)N)NC(=O)[C@H](CCC(N)=O)NC(=O)[C@@H]1CCCN1C(=O)[C@@H](N)[C@@H](C)O)C(=O)N[C@@H](CCCNC(=N)N)C(=O)N[C@@H](CCCNC(=N)N)C(=O)N[C@@H](CCCNC(=N)N)C(=O)N[C@@H](CCCCN)C(=O)N[C@@H](CCCCN)C(=O)N[C@@H](CCCNC(=N)N)C(=O)N[C@@H](CCC(N)=O)C(N)=O (H-TPQRARRRKKRQ-NH2)	> 100 nM
C[C@@H](O)[C@H](N)C(=O)N1CCC[C@H]1C(=O)N[C@@H](CCC(N)=O)C(=O)N[C@@H](CCCNC(=N)N)C(=O)N[C@@H](CC(N)=O)C(=O)N[C@@H](CCCNC(=N)N)C(=O)N[C@@H](CCCNC(=N)N)C(=O)N[C@@H](CCCNC(=N)N)C(=O)N[C@@H](CCCCN)C(=O)N[C@@H](CCCCN)C(=O)N[C@@H](CCCNC(=N)N)C(=O)NCC(N)=O (H-TPQRNRRRKKRG-NH2)	> 100 nM
CC(C)C[C@H](NC(=O)[C@H](CCCNC(=N)N)NC(=O)[C@H](CCCCN)NC(=O)[C@H](CCCCN)NC(=O)[C@H](CCCNC(=N)N)NC(=O)[C@H](CCCNC(=N)N)NC(=O)[C@H](CCCNC(=N)N)NC(=O)[C@H](C)NC(=O)[C@H](CCCNC(=N)N)NC(=O)[C@H](CCC(N)=O)NC(=O)[C@@H]1CCCN1C(=O)[C@@H](N)[C@@H](C)O)C(N)=O (H-TPQRARRRKKRL-NH2)	> 100 nM
C[C@@H](O)[C@H](N)C(=O)N1CCC[C@H]1C(=O)N[C@@H](CCC(N)=O)C(=O)N[C@@H](CCCNC(=N)N)C(=O)N[C@@H](CCC(N)=O)C(=O)N[C@@H](CCCNC(=N)N)C(=O)N[C@@H](CCCNC(=N)N)C(=O)N[C@@H](CCCNC(=N)N)C(=O)N[C@@H](CCCCN)C(=O)N[C@@H](CCCCN)C(=O)N[C@@H](CCCNC(=N)N)C(=O)NCC(N)=O (H-TPQRQRRRKKRG-NH2)	> 100 nM
CC(C)[C@H](NC(=O)[C@H](CCCNC(=N)N)NC(=O)[C@H](CCCCN)NC(=O)[C@H](CCCCN)NC(=O)[C@H](CCCNC(=N)N)NC(=O)[C@H](CCCNC(=N)N)NC(=O)[C@H](CCCNC(=N)N)NC(=O)[C@H](C)NC(=O)[C@H](CCCNC(=N)N)NC(=O)[C@H](CCC(N)=O)NC(=O)[C@@H]1CCCN1C(=O)[C@@H](N)[C@@H](C)O)C(N)=O (H-TPQRARRRKKRV-NH2)	48 nM
CC[C@H](C)[C@H](NC(=O)[C@H](CCCNC(=N)N)NC(=O)[C@H](CCCCN)NC(=O)[C@H](CCCCN)NC(=O)[C@H](CCCNC(=N)N)NC(=O)[C@H](CCCNC(=N)N)NC(=O)[C@H](CCCNC(=N)N)NC(=O)[C@H](C)NC(=O)[C@H](CCCNC(=N)N)NC(=O)[C@H](CCC(N)=O)NC(=O)[C@@H]1CCCN1C(=O)[C@@H](N)[C@@H](C)O)C(N)=O (H-TPQRARRRKKRI-NH2)	> 100 nM
C[C@@H](O)[C@H](N)C(=O)N1CCC[C@H]1C(=O)N[C@@H](CCC(N)=O)C(=O)N[C@@H](CCCNC(=N)N)C(=O)NCC(=O)N[C@@H](CCCNC(=N)N)C(=O)N[C@@H](CCCNC(=N)N)C(=O)N[C@@H](CCCNC(=N)N)C(=O)N[C@@H](CCCCN)C(=O)N[C@@H](CCCCN)C(=O)N[C@@H](CCCNC(=N)N)C(=O)NCC(N)=O (H-TPQRGRRRKKRG-NH2)	> 100 nM
CC(C)[C@H](NC(=O)[C@H](CCCNC(=N)N)NC(=O)[C@H](CCC(N)=O)NC(=O)[C@@H]1CCCN1C(=O)[C@@H](N)[C@@H](C)O)C(=O)N[C@@H](CCCNC(=N)N)C(=O)N[C@@H](CCCNC(=N)N)C(=O)N[C@@H](CCCNC(=N)N)C(=O)N[C@@H](CCCCN)C(=O)N[C@@H](CCCCN)C(=O)N[C@@H](CCCNC(=N)N)C(=O)NCC(N)=O (H-TPQRVRRRKKRG-NH2)	> 100 nM
